The text below walks through data of US5171882A, “Leukotriene antagonists” (Eli Lilly and Company, priority 1990, dated 1992).

The test has as its target T1, specific receptor on the membrane of human neutrophils (leukotriene B4) (Homo sapiens, UniProt Q15722).
T1 construct: Freshly-prepared buffy coat layers from two individuals were obtained from a local blood donor center; endogenous in cells; host or cells: intact human peripheral blood neutrophils from buffy coats of two donors
The test can be described thus: Inhibition of Binding of ^3 H-LTB4 to Peripheral Human Neutrophils. The conditions noted are these: for inhibition at 10 µM / inhibition at 1 µM / inhibition at 0.1 µM: read-out: LTB4 Binding Inhibition; for inhibition at 0.1 µM: drug concentration 10^-7 M. As for the experimental part: Cells used in the assay were isolated by standard techniques of centrifugation on Ficoll-Hypaque, dextran 70 sedimentation and hypotonic lysis. The following procedure was used. Freshly-prepared buffy coat layers from two individuals were obtained from a local blood donor center. The cells were mixed and diluted to 484 ml with phosphate buffered saline containing heparin (10 units/ml) and heat-inactivated calf serum (5%). This was divided into 20 ml aliquots and the aliquots layered on top of Ficoll-Paque (12 ml). The material was then centrifuged at 500 g for 40 minutes at room temperature. The resulting upper layer of platelets and mononuclear cells was discarded. The lower layer containing erythrocytes and neutrophils was retained. Buffer was added (1 ml per 4 ml of lower layer) and the suspension mixed. For each milliliter of this mixture, 0.33 ml of 6% Macrodex was added. After stirring, the cells were allowed to sediment for 1 hour at 37° C. The resulting erythrocyte pellet was discarded and the neutrophil enriched supernatant fluid centrifuged at 500 g for 10 minutes at 4° C. Erythrocytes still present in this cell pellet were lysed by incubating the cells with 5-8 ml ice-cold distilled water for 30-45 seconds. Subsequently, the volume was made up to 50 ml by addition of ice-cold buffer and the cells resuspended. The suspension was then centrifuged at 300 g for 10 minutes at 4° C. The cells were finally resuspended at a cell density of 2×10^7 cells/ml in the assay buffer This buffer consisted of Hanks' balanced salt solution and 0.1% ovalbumin (pH 7.3).
The amount of bound ^3 H-LTB4 was then measured and compared with the amount bound in the absence of test compound. The assay was carried out in microcentrifuge tubes by adding first 10 μl test compound dissolved in DMSO, followed by adding 20 μl ^3 H-LTB4 diluted in assay buffer, and finally adding 500 μl of the cell suspension. At the end of the 10 minutes incubation, 300 μl of a mixture of dibutyl and dinonyl phthalate (7:2) were added and the tubes centrifuged for 2 minutes in a microcentrifuge. The radioactivity bound to the cell pellet was measured by scintillation spectroscopy. Appropriate corrections for nonspecific bonding of ^3 H-LTB4 were made.

[1] abbreviates: drug concentration 10^-5 M, 0.1-0.2 nM ^3 H-LTB4, 10 minutes at 4° C.
Where [2] appears, read: drug concentration 10^-6 M, 0.1-0.2 nM ^3 H-LTB4, 10 minutes at 4° C.
[3] abbreviates: 0.1-0.2 nM ^3 H-LTB4, 10 minutes at 4° C.

Read-outs that look alike come from different tables or passages of the source.

T1 sequence (Q15722 whole entry): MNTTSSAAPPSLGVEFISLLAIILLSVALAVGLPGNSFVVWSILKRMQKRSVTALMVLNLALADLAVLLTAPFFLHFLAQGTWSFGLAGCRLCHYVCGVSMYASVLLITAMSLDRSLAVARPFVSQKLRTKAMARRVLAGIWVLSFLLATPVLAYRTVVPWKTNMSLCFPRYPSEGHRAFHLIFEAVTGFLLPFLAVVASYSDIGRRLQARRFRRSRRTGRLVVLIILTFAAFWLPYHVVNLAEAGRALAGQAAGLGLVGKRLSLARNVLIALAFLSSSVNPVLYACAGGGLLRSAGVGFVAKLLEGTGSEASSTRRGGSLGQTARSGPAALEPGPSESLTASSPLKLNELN

As to `CCCCCCCCOc1ccc(C(O)c2cccc(C(=O)O)c2)cc1CC(=O)O` (stereo not drawn) [Example 44, 5-[(3-Carboxyphenyl)hydroxymethyl]-2-(octyloxy)benzeneacetic acid], the inhibition (usually the drop in the measured response relative to a control, in per cent) at 10 µM under setting [1] stood at 41%. The inhibition at 1 µM under setting [2] was determined as 11%.
For `CCCCCCCCCCCCCCOc1ccc(C(=O)c2cccc(C(=O)O)c2)cc1CC(=O)O` [Example 26, 5-(3-Carboxybenzoyl)-2-(tetradecyloxy)benzeneacetic acid], under setting [1], the inhibition at 10 µM came to 63%. Also, the inhibition at 1 µM under setting [2] was found to be 10%.
With `CCCCCCCCCCOc1ccc(C(=O)c2cccc(C#N)c2)cc1CC#N` [Example 12, 5-(3-Cyanobenzoyl)-2-(decyloxy)benzeneacetonitrile], the inhibition at 10 µM under setting [1] worked out at 3%. Besides, the inhibition at 1 µM under setting [2] is -1%.
`COc1cccc(CCCCCCOc2ccc(C(=O)c3cccc(C(=O)O)c3)cc2CCC(=O)O)c1` [Example 86, 5-(3-Carboxybenzoyl)-2-{[6-(3-methoxyphenyl)hexyl]oxy}benzenepropanoic acid]: under setting [1], the inhibition at 10 µM turned out to be 95%. Besides, under setting [2], the inhibition at 1 µM worked out at 88%. Moreover, the inhibition at 0.1 µM under setting [3] amounted to 46%.
As for `CCCCCCCCCCOc1ccc(C(=O)c2cccc(-c3nnn[nH]3)c2)cc1CC(=O)OCC` [Example 15, 2-(Decyloxy)-5-[3-(1H-tetrazol-5-yl)benzoyl]benzeneacetic acid, ethyl ester], the inhibition at 10 µM under setting [1] is -13%. Further, under setting [2], the inhibition at 1 µM came out at 1%.
As to `COc1ccccc1C=CCCCCOc1ccc(C(=O)c2cccc(C(=O)O)c2)cc1CCC(=O)O` [Example 85, 5-(3-Carboxybenzoyl)-2-{[6-(2-methoxyphenyl)-5-hexenyl]oxy}benzenepropanoic acid], the inhibition at 1 µM was found to be 97%. Besides, under setting [1], the inhibition at 10 µM came to 101%. In addition, under setting [3], the inhibition at 0.1 µM worked out at 86%.
For the compound `O=C(O)CCc1cc(NC(=O)c2cccc(C(=O)O)c2)ccc1OCCCCCCc1ccccc1` [Example 102], the inhibition at 10 µM under setting [1] amounted to 98%. Also, the inhibition at 1 µM under setting [2] amounted to 72%. The inhibition at 0.1 µM under setting [3] came out at 18%.
Regarding `CSc1ccc(C=CCCCCOc2ccc(C(=O)c3cccc(C(=O)O)c3)cc2CCC(=O)O)cc1` [Example 83, 5-(3-Carboxybenzoyl)-2-{[6-(4-methylmercaptophenyl)-5-hexenyl]oxy}benzenepropanoic acid], under setting [1], the inhibition at 10 µM was found to be 103%. The inhibition at 1 µM under setting [2] amounted to 79%. Moreover, the inhibition at 0.1 µM under setting [3] is 18%.
Turning to `CC(=O)c1ccc(CCCCCCOc2ccc(C(=O)c3cccc(C(=O)O)c3)cc2CCC(=O)O)cc1` [Example 101, 2-{[6-(4-Acetylphenyl)hexyl]oxy}-5-(3-carboxybenzoyl]benzenepropanoic acid], the inhibition at 1 µM under setting [2] amounted to 88%. Also, under setting [3], the inhibition at 0.1 µM is 46%.
As to `CCCCCCCCCCOc1ccc(C(=O)c2ccccc2C(=O)O)cc1CC(=O)OCC` [Example 32, 5-(2-Carboxybenzoyl)-2-(decyloxy)benzeneacetic acid, ethyl ester], the inhibition at 10 µM under setting [1] was found to be 19%. In addition, under setting [2], the inhibition at 1 µM is -6%.
As for `CCCCCCCCCCOc1ccc(C(=O)c2ccccc2C(=O)O)cc1CC(=O)O` [Example 35, 5-(2-Carboxybenzoyl)-2-(decyloxy)benzeneacetic acid], the “LTB4 Binding Inhibition” value under setting [1] is on record as 53 percent inhibition and the “LTB4 Binding Inhibition” value under setting [2] came to 2 percent inhibition.
On to `COc1ccccc1CCCCCCOc1ccc(C(=O)c2cccc(C(=O)O)c2)cc1CCC(=O)O` [Example 87, 5-(3-Carboxybenzoyl)-2-{[6-(2-methoxyphenyl)hexyl]oxy}benzenepropanoic acid], for which the inhibition at 10 µM was determined as 100%. For the same compound, the inhibition at 1 µM under setting [2] was 91%. Under setting [3], the inhibition at 0.1 µM worked out at 34%.
Regarding `O=C(O)CCc1cc(C(=O)c2cccc(C(=O)O)c2)ccc1OCCCCS(=O)(=O)c1ccccc1` [Example 78, 5-(3-Carboxybenzoyl)-2-[4-(phenylsulfonyl)-butoxy]benzenepropanoic acid], the inhibition at 10 µM under setting [1] was found to be 18%. Also, under setting [2], the inhibition at 1 µM came out at 4%.
In the case of `O=C(O)CCc1cc(C(=O)c2cccc(C(=O)O)c2)ccc1OCCCC[S+]([O-])c1ccccc1` (stereo not drawn) [Example 77, 5-(3-Carboxybenzoyl)-2-[4-(phenylsulfinyl)-butoxy]benzenepropanoic acid], under setting [1], the inhibition at 10 µM stood at 22%. Also, the inhibition at 1 µM under setting [2] came to 8%.
For `COc1ccc(CCCCCCOc2ccc(C(=O)c3cccc(C(=O)O)c3)cc2CCC(=O)O)cc1` [Example 80, 5-(3-Carboxybenzoyl)-2-{[6-(4-methoxyphenyl)-hexyl]oxy}benzenepropanoicacid], under setting [1], the inhibition at 10 µM is 105%. Further, the inhibition at 1 µM under setting [2] stood at 98%. Besides, the inhibition at 0.1 µM under setting [3] worked out at 68%.
Turning to `CCCCCCCCCCOc1ccc(C(=O)c2cccc(C(=O)OCC)c2)cc1Cc1nnn[nH]1` [Example 2, 3-[4-(Decyloxy)-3-(1H-tetrazol-5-ylmethyl)-benzoyl]benzoic acid, ethyl ester], the inhibition at 10 µM under setting [1] is -11%. Besides, under setting [2], the inhibition at 1 µM is 14%.
In the case of `COc1cccc(C=CCCCCOc2ccc(C(=O)c3cccc(C(=O)O)c3)cc2CCC(=O)O)c1` [Example 84, 5-(3-Carboxybenzoyl)-2-{[6-(3-methoxyphenyl)-5-hexenyl]oxy}benzenepropanoic acid], the inhibition at 10 µM under setting [1] was 99%. In addition, the inhibition at 1 µM under setting [2] worked out at 91%. Also, the inhibition at 0.1 µM under setting [3] came out at 49%.
As for `O=C(O)CCc1cc(C(=O)c2cccc(C(=O)O)c2)ccc1OCCCCCCc1ccc(F)cc1` [Example 82, 5-(3-Carboxybenzoyl)-2-{[6-(4-fluorophenyl)hexyl]oxy}benzenepropanoic acid], under setting [1], the inhibition at 10 µM is 104%. For the same compound, the inhibition at 1 µM under setting [2] came out at 81%. The inhibition at 0.1 µM under setting [3] was found to be 22%.
Regarding `CCCCCCCCCCOc1ccc(C(O)c2cccc(C(=O)OCC)c2)cc1CC(=O)OCC` (stereo not drawn) [Example 40, 2-(Decyloxy)-5-{[3-(ethoxycarbonyl)phenyl]hxdroxymethyl}benzeneacetic acid, ethyl ester], the inhibition at 10 µM under setting [1] is -14%. Also, under setting [2], the inhibition at 1 µM was -10%.
On to `O=C(O)CCc1cc(C(=O)c2cccc(C(=O)O)c2)ccc1OCCCCC=Cc1ccccc1` [Example 76, 5-(3-Carboxybenzoyl)-2-[6-(phenyl-5-hexenyl)oxy]benzenepropanoic acid], for which the inhibition at 10 µM under setting [1] worked out at 96%. Further, the inhibition at 1 µM under setting [2] is 91%. In addition, the inhibition at 0.1 µM under setting [3] was 36%.
With `CCCCCCCCCCOc1ccc(C(=O)c2cccc(-c3nnn[nH]3)c2)cc1Cc1nnn[nH]1` [Example 17, [4-(Decyloxy)-3-(1H-tetrazol-5-ylmethyl)phenyl][3-(1H-tetrazol-5-yl)phenyl]methanone], the inhibition at 10 µM under setting [1] was 81%. Also, under setting [2], the inhibition at 1 µM was 20%.
For `CCCCCCCCCCOc1ccc(C(=O)c2cccc(C(=O)OCC)c2)cc1CC(=O)OCC` [Example 4, 2-(Decyloxy)-5-[3-(ethoxycarbonyl)benzoyl]benzeneacetic acid, ethyl ester], in that order: -5% and -1%.
For `CS(=O)(=O)c1ccc(C=CCCCCOc2ccc(C(=O)c3cccc(C(=O)O)c3)cc2CCC(=O)O)cc1` [Example 91, 5-(3-Carboxybenzoyl)-2-{[6-(4-methylsulfonylphenyl)-5-hexenyl]oxy}benzenepropanoic acid], under setting [1], the inhibition at 10 µM was found to be 98%. The inhibition at 1 µM under setting [2] stood at 88%. Further, the inhibition at 0.1 µM under setting [3] stood at 60%.
Regarding `CCCCCCCCCCCCOc1ccc(C(=O)c2cccc(C(=O)O)c2)cc1CC(=O)O` [Example 27, 5-(3-Carboxybenzoyl)-2-(dodecyloxy)benzeneacetic acid], the inhibition at 10 µM under setting [1] turned out to be 80%. Further, the inhibition at 1 µM under setting [2] was 18%.
The matching figures for `CCCCCCCCCCOc1ccc(Cc2cccc(C(=O)O)c2)cc1CCC(=O)O` [Example 50, 5-[(3-Carboxyphenyl)methyl]-2-(decyloxy)benzenepropanoic acid]: 88% and 41%.
